Reference: patent US9968609B2, “Sildenafil solutions and methods of making and using same” (Vigorous Solutions Ltd., priority 2014, dated 2018)
Structures can show the parent of a compound that is named as a salt.

Experiment: Spectrophotometric absorbance at 228 nm before and after 0.22 micron filtration (Example 12)
Format: physicochemical
Conditions: 70% ethanol in water, organic solvent or mixture; as prepared in Example 1, 70% ethanol; read-out: concentration at which fully soluble
Procedure: A UV-VIS Genesys 105 Thermo Scientific spectrophotometer was used for the assay. Samples were placed in a UV Kurette Halbmicro/UV Cuvette semi micro [Cat no: 759150] for reading.
Because the reference describes measurements at μg/ml concentrations, both the filtered and unfiltered 18 mg/ml solutions were diluted to 9 μg/ml and 12.5 μg/ml and measured again.

solubility at 10 min: 18 mg/mL
Compound: CCCc1nn(C)c2c(=O)[nH]c(-c3cc(S(=O)(=O)N4CCN(C)CC4)ccc3OCC)nc12 [sildenafil citrate]
